As usually defined, the pKi is the negative decadic logarithm of the Ki, by convention in mol/L. High values mean a small Ki, low ones a large Ki.

Consider eleven molecules from ChEMBL document CHEMBL3045025, “Exploring structural requirement and binding interactions of -amyloid cleavage enzyme inhibitors using molecular modeling techniques” (Med Chem Res, 2013).

pKi: −log10 of the molar value.

The assay has as its target Beta-secretase 1 (Homo sapiens, UniProt P56817). Description: Inhibition of BACE (unknown origin).

Beta-secretase 1, sequence (P56817 whole entry): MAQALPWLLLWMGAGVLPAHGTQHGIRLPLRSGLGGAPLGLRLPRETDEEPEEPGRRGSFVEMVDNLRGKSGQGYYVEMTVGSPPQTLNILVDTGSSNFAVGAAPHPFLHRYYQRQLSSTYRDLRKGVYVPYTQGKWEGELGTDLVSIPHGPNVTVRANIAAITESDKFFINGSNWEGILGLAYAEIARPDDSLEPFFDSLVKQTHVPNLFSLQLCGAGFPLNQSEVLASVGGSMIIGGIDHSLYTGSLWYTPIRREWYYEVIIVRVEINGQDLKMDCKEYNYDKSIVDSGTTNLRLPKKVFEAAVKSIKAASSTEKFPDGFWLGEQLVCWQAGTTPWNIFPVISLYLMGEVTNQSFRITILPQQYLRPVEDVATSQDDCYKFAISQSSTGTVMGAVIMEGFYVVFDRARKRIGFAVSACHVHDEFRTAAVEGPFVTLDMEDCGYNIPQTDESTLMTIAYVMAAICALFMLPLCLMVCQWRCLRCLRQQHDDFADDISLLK

For `CC(C)C[C@H](NCC(=O)[C@H](CC(N)=O)NC(=O)OC(C)(C)C)[C@@H](O)C[C@@H](C)C(=O)N[C@@H](C)C(=O)NCc1ccccc1`, the negative logarithm of the Ki (pKi) is 4.65. As for `CC(C)C[C@H](NCC(=O)[C@@H](CCS(C)(=O)=O)NC(=O)[C@@H](NC(=O)OC(C)(C)C)C(C)C)[C@@H](O)C[C@@H](C)C(=O)N[C@@H](C(=O)NCc1ccccc1)C(C)C`, the pKi is 5.10. Molecule `CSCC[C@@H](NC(=O)[C@@H](NC(=O)OC(C)(C)C)C(C)C)C(=O)CN[C@@H](CC(C)C)[C@@H](O)C[C@@H](CC(C)C)C(=O)N[C@@H](C(=O)NCc1ccccc1)C(C)C` gave a pKi of 4.98. `CC(C)C[C@H](NCC(=O)[C@H](CC(N)=O)NC(=O)OC(C)(C)C)[C@@H](O)C[C@@H](C)C(=O)N[C@H](C(=O)NCc1ccccc1)C(C)C` had a pKi of 5.50. Molecule `CC(C)C[C@H](NCC(=O)[C@H](CS(C)(=O)=O)NC(=O)OC(C)(C)C)[C@@H](O)C[C@@H](C)C(=O)N[C@H](C(=O)NCc1ccccc1)C(C)C` had a negative-log Ki (pKi) of 5.95. For the molecule `CC(C)C[C@H](NCC(=O)[C@H](CC(N)=O)NC(=O)[C@@H](NC(=O)OC(C)(C)C)C(C)C)[C@@H](O)C[C@@H](C)C(=O)N[C@@H](C)C(=O)NCc1ccccc1`, the pKi is 4.21. Regarding `CC(C)C[C@H](NCC(=O)[C@H](CC(N)=O)NC(=O)[C@@H](NC(=O)OC(C)(C)C)C(C)C)[C@@H](O)C[C@@H](C)C(=O)N[C@@H](C(=O)NCc1ccccc1)C(C)C`, the pKi was 5.23.

As for `CSC[C@@H](NC(=O)[C@@H](NC(=O)OC(C)(C)C)C(C)C)C(=O)CN[C@@H](CC(C)C)[C@@H](O)C[C@@H](C)C(=O)N[C@H](C(=O)NCc1ccccc1)C(C)C`, the pKi was 4.30.

In turn, `CC(C)C[C@H](NCC(=O)[C@H](CS(C)(=O)=O)NC(=O)[C@@H](NC(=O)OC(C)(C)C)C(C)C)[C@@H](O)C[C@@H](C)C(=O)N[C@@H](C(=O)NCc1ccccc1)C(C)C` showed a pKi of 5.03.

Regarding `CSCC[C@@H](NC(=O)OC(C)(C)C)C(=O)CN[C@@H](CC(C)C)[C@@H](O)C[C@@H](C)C(=O)N[C@H](C(=O)NCc1ccccc1)C(C)C`, the pKi was 5.24. Compared with the last molecule, the pKi is 0.21 log units higher. Take `CSCC[C@@H](NC(=O)[C@@H](NC(=O)OC(C)(C)C)C(C)C)C(=O)CN[C@@H](CC(C)C)[C@@H](O)C[C@@H](C)C(=O)NC(C(=O)NCc1ccccc1)C(C)C` (single isomer, unassigned): the pKi was 5.60.
